Measured values from the supplement of paper PMC10307832.

How the values were obtained:
Experiment in all cases: relative viability (nuclei count vs DMSO), 5 days (fraction); higher = more cells survive
NCI-H661 = tested on: NCI-H661
Method in brief: (§1)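 Relative viability equals treated-well nuclei counts divided by vehicle-well nuclei counts. Counts came from 4× images of lung cancer cell lines grown in 1536-well plates for 5 days after pin-tool dosing on the day after seeding. Dosing used one drug alone or a fixed anchor-drug dose plus five library-drug doses (not always all listed) in √10 steps, and values are medians of duplicate plates.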

NCI-H1915 = tested on: NCI-H1915
Method in brief: as §1

NCI-H1666 = tested on: NCI-H1666
Method in brief: as §1

LCLC-97TM1 = tested on: LCLC-97TM1
Method in brief: as §1

NCI-H838 = tested on: NCI-H838
Method in brief: as §1

EKVX = tested on: EKVX
Method in brief: as §1

NCI-H1975 = tested on: NCI-H1975
Method in brief: as §1

SK-LU-1 = tested on: SK-LU-1
Method in brief: as §1

NCI-H647 = tested on: NCI-H647
Method in brief: as §1

PC-3 [JPC-3] = tested on: PC-3 [JPC-3]
Method in brief: as §1

NCI-H23 = tested on: NCI-H23
Method in brief: as §1

NCI-H441 = tested on: NCI-H441
Method in brief: as §1

NCI-H460 = tested on: NCI-H460
Method in brief: as §1

NCI-H727 = tested on: NCI-H727
Method in brief: as §1

NCI-H596 = tested on: NCI-H596
Method in brief: as §1

NCI-H1437 = tested on: NCI-H1437
Method in brief: as §1

NCI-H358 = tested on: NCI-H358
Method in brief: as §1

NCI-H2342 = tested on: NCI-H2342
Method in brief: as §1

NCI-H322M = tested on: NCI-H322M
Method in brief: as §1

NCI-H520 = tested on: NCI-H520
Method in brief: as §1

NCI-H1650 = tested on: NCI-H1650
Method in brief: as §1

Compound: Cc1csc(=NC2CCCCC2)n1/N=C/c1ccc(O)c(O)c1O [MIM1] + COc1cc2c(Oc3ccc(NC(=O)C4(C(=O)Nc5ccc(F)cc5)CC4)cc3F)ccnc2cc1OCCCN1CCOCC1 [Foretinib] (partner 0.25 µM)
- relative viability (NCI-H661; first compound 0.2 µM): 0.933
- relative viability (NCI-H661; first compound 0.6325 µM): 1
- relative viability (NCI-H661; first compound 2 µM): 0.939
- relative viability (NCI-H661; first compound 6.325 µM): 0.75
- relative viability (NCI-H661; first compound 20 µM): 0.355
- relative viability (NCI-H1915; first compound 0.2 µM): 1.13
- relative viability (NCI-H1915; first compound 0.6325 µM): 1.07
- relative viability (NCI-H1915; first compound 2 µM): 1.07
- relative viability (NCI-H1915; first compound 6.325 µM): 0.83
- relative viability (NCI-H1915; first compound 20 µM): 0.251
- relative viability (NCI-H1666; first compound 0.2 µM): 0.943
- relative viability (NCI-H1666; first compound 0.6325 µM): 0.962
- relative viability (NCI-H1666; first compound 2 µM): 1
- relative viability (NCI-H1666; first compound 6.325 µM): 0.724
- relative viability (NCI-H1666; first compound 20 µM): 0.597
- relative viability (LCLC-97TM1; first compound 0.2 µM): 0.92
- relative viability (LCLC-97TM1; first compound 0.6325 µM): 1.08
- relative viability (LCLC-97TM1; first compound 2 µM): 0.888
- relative viability (LCLC-97TM1; first compound 6.325 µM): 0.611
- relative viability (LCLC-97TM1; first compound 20 µM): 0.259
- relative viability (NCI-H838; first compound 0.2 µM): 1.01
- relative viability (NCI-H838; first compound 0.6325 µM): 1.01
- relative viability (NCI-H838; first compound 2 µM): 0.761
- relative viability (NCI-H838; first compound 6.325 µM): 0.853
- relative viability (NCI-H838; first compound 20 µM): 0.657
- relative viability (EKVX; first compound 0.2 µM): 0.766
- relative viability (EKVX; first compound 0.6325 µM): 0.234
- relative viability (EKVX; first compound 2 µM): 0.75
- relative viability (EKVX; first compound 6.325 µM): 0.379
- relative viability (EKVX; first compound 20 µM): 0.422
- relative viability (NCI-H1975; first compound 0.2 µM): 0.905
- relative viability (NCI-H1975; first compound 0.6325 µM): 0.96
- relative viability (NCI-H1975; first compound 2 µM): 0.837
- relative viability (NCI-H1975; first compound 6.325 µM): 0.493
- relative viability (NCI-H1975; first compound 20 µM): 0.316
- relative viability (SK-LU-1; first compound 0.2 µM): 0.849
- relative viability (SK-LU-1; first compound 0.6325 µM): 0.821
- relative viability (SK-LU-1; first compound 2 µM): 0.849
- relative viability (SK-LU-1; first compound 6.325 µM): 0.75
- relative viability (SK-LU-1; first compound 20 µM): 0.788
- relative viability (NCI-H647; first compound 0.2 µM): 1.16
- relative viability (NCI-H647; first compound 0.6325 µM): 1.12
- relative viability (NCI-H647; first compound 6.325 µM): 1
- relative viability (NCI-H647; first compound 20 µM): 0.703
- relative viability (PC-3 [JPC-3]; first compound 0.2 µM): 1.01
- relative viability (PC-3 [JPC-3]; first compound 0.6325 µM): 1.05
- relative viability (PC-3 [JPC-3]; first compound 2 µM): 1.01
- relative viability (PC-3 [JPC-3]; first compound 6.325 µM): 0.763
- relative viability (PC-3 [JPC-3]; first compound 20 µM): 0.531
- relative viability (NCI-H23; first compound 0.2 µM): 1.07
- relative viability (NCI-H23; first compound 2 µM): 0.791
- relative viability (NCI-H23; first compound 6.325 µM): 0.812
- relative viability (NCI-H23; first compound 20 µM): 0.263
- relative viability (NCI-H441; first compound 0.2 µM): 1.17
- relative viability (NCI-H441; first compound 2 µM): 1.01
- relative viability (NCI-H441; first compound 6.325 µM): 0.617
- relative viability (NCI-H441; first compound 20 µM): 0.256
- relative viability (NCI-H460; first compound 0.2 µM): 0.954
- relative viability (NCI-H460; first compound 0.6325 µM): 0.987
- relative viability (NCI-H460; first compound 2 µM): 0.862
- relative viability (NCI-H460; first compound 6.325 µM): 0.493
- relative viability (NCI-H460; first compound 20 µM): 0.0555
- relative viability (NCI-H727; first compound 0.2 µM): 0.948
- relative viability (NCI-H727; first compound 0.6325 µM): 0.883
- relative viability (NCI-H727; first compound 2 µM): 0.732
- relative viability (NCI-H727; first compound 6.325 µM): 0.968
- relative viability (NCI-H727; first compound 20 µM): 0.439
- relative viability (NCI-H596; first compound 0.2 µM): 0.886
- relative viability (NCI-H596; first compound 0.6325 µM): 0.741
- relative viability (NCI-H596; first compound 2 µM): 0.858
- relative viability (NCI-H596; first compound 6.325 µM): 0.848
- relative viability (NCI-H596; first compound 20 µM): 0.636
- relative viability (NCI-H1437; first compound 0.2 µM): 1.24
- relative viability (NCI-H1437; first compound 0.6325 µM): 1.34
- relative viability (NCI-H1437; first compound 2 µM): 1.19
- relative viability (NCI-H1437; first compound 6.325 µM): 1.1
- relative viability (NCI-H1437; first compound 20 µM): 0.243
- relative viability (NCI-H358; first compound 0.2 µM): 0.646
- relative viability (NCI-H358; first compound 0.6325 µM): 0.758
- relative viability (NCI-H358; first compound 2 µM): 0.623
- relative viability (NCI-H358; first compound 6.325 µM): 0.348
- relative viability (NCI-H358; first compound 20 µM): 0.149
- relative viability (NCI-H2342; first compound 0.2 µM): 1.25
- relative viability (NCI-H2342; first compound 0.6325 µM): 0.952
- relative viability (NCI-H2342; first compound 2 µM): 1.07
- relative viability (NCI-H2342; first compound 6.325 µM): 0.952
- relative viability (NCI-H2342; first compound 20 µM): 1.11
- relative viability (NCI-H322M; first compound 0.2 µM): 0.986
- relative viability (NCI-H322M; first compound 0.6325 µM): 0.895
- relative viability (NCI-H322M; first compound 2 µM): 0.867
- relative viability (NCI-H322M; first compound 6.325 µM): 0.85
- relative viability (NCI-H322M; first compound 20 µM): 0.548
- relative viability (NCI-H520; first compound 0.2 µM): 0.635
- relative viability (NCI-H520; first compound 0.6325 µM): 0.728
- relative viability (NCI-H520; first compound 2 µM): 0.587
- relative viability (NCI-H520; first compound 6.325 µM): 0.646
- relative viability (NCI-H520; first compound 20 µM): 0.501
- relative viability (NCI-H1650; first compound 0.2 µM): 1.16
- relative viability (NCI-H1650; first compound 0.6325 µM): 1.12
- relative viability (NCI-H1650; first compound 2 µM): 0.832
- relative viability (NCI-H1650; first compound 6.325 µM): 0.265
- relative viability (NCI-H1650; first compound 20 µM): 0.142
